Reference: patent US20150132852A1, “TISSUE CULTURING METHOD, CULTURING METHOD OF FERNS AND EXPLANT OBTAINED THEREFROM” (Chunghwa Picture Tubes, Ltd., priority 2013, published 2015)

What was measured:
[1] = tested on: callus rounds of Davallia mariesii; test: Sporophyte regeneration from callus rounds under various cytokinins; assay type: cell-based
Experimental: Finally, the callus round is further cultured in a culture fluid at 23° C. to 25° C. and 11 to 14 μmol^−2 s^−1 (Light:Dark=16:8) for between to 150 days (preferably for 120 days), and are preferably sub-cultured every fifteen days till the callus round regenerates a sporophyte. In this situation, the callus round will keep on growing, and can reach 0.57 cm to 0.7 cm in diameter after approximately 60 days, and reach 1.2 cm to 1.34 cm in 120 days. In the present example, the culture fluid comprises ½ MS medium. In other examples, the culture fluid can further comprise 1 to 5 mg/l N6-(delta 2-isopentenyl)-adenine (2ip), 6-benzylaminopurine (BA) and kinetin, particularly for 1 mg/l N6-(delta 2-isopentenyl)-adenine (2ip). […] Additionally, a regenerated sporophyte of the present example can be further transplanted to a solid medium till it has more than 3 cm length (preferably for 3.5 cm length) for growing into a plant, wherein the plant has a survival rate of up to 90.3%. In the present experiment, callus rounds, being 0.14±0.03 g and 0.21±0.02, are prepared wherein every four are cultured in a culture fluid to induce the callus rounds to regenerate sporophytes, wherein the medium comprises ½ MS medium (including a small amount of sucrose, namely 20 g/l sucrose) and various cytokinins in various amounts as listed in TABLE 3. After 60 days and 120 days of culturing, respectively, sporophytes obtained in each medium are collected and analyzed to record the size of the callus rounds and the number and length of sporophytes regenerated from the callus rounds.

[2] = tested on: chopped prothallium of Davallia mariesii; test: Calluses induction from chopped prothallium under various growth regulators; assay type: cell-based; conditions: 60 days
Experimental: The prothallium is chopped up into small pieces being 0.1 cm to 0.2 cm in width and cultured (suspending culture) in a medium, wherein the medium comprises ½ MS medium (Murashige and Skoog, 1962) having a composition as shown in TABLE 1. In other examples, the medium can also comprise Knop medium (Murashige and Skoog, 1962) or knudson medium (Knudson, 1946). Precisely, 0.1 g chopped prothallium are cultured in 10 ml ½ MS medium, which are shake cultured at 85 rpm for forty to eighty days, and preferably at 23° C. to 25° C. and 11 to 14 μmol^−2 s^−1 (Light:Dark=16:8) for sixty days, and are sub-cultured every thirty days. In the present experiment, a plurality of 50 ml flasks are prepared, each having 0.1 g chopped prothallium of Davallia mariesii (in 0.1 cm to 0.2 cm pieces) being cultured in a medium therein, wherein the medium comprises 10 ml ½ MS medium (including a small amount of sucrose, namely 20 g/l sucrose) and various growth regulators in various amounts as listed in TABLE 2. After 60 days of culturing, calluses obtained in each flask are collected and analyzed respectively, to record the size, weight and number of each callus.

[3] = 1 mg/l in culture fluid, 120 days
[4] = single growth regulator 1 mg/L in 1/2 MS medium
[5] = single growth regulator 2 mg/L in 1/2 MS medium
[6] = single growth regulator 5 mg/L in 1/2 MS medium

Compound	Diameter (cm) of callus round and sporophyte thereon ([1]; cytokinin 1 mg/L, 60 days)	Induction Rate (%) of sporophyte ([1]; cytokinin 1 mg/L, 60 days)	Proliferation Rate (%) of callus round ([1]; cytokinin 1 mg/L, 60 days)	Diameter (cm) of callus round and sporophyte thereon ([1]; cytokinin 1 mg/L, 120 days)	Induction Rate (%) of sporophyte ([1]; cytokinin 1 mg/L, 120 days)	Proliferation Rate (%) of callus round ([1]; cytokinin 1 mg/L, 120 days)	Diameter (cm) of callus round and sporophyte thereon ([1]; cytokinin 2 mg/L, 60 days)	Induction Rate (%) of sporophyte ([1]; cytokinin 2 mg/L, 60 days)	Proliferation Rate (%) of callus round ([1]; cytokinin 2 mg/L, 60 days)	Diameter (cm) of callus round and sporophyte thereon ([1]; cytokinin 2 mg/L, 120 days)	Induction Rate (%) of sporophyte ([1]; cytokinin 2 mg/L, 120 days)	Proliferation Rate (%) of callus round ([1]; cytokinin 2 mg/L, 120 days)	Diameter (cm) of callus round and sporophyte thereon ([1]; cytokinin 5 mg/L, 60 days)	Induction Rate (%) of sporophyte ([1]; cytokinin 5 mg/L, 60 days)	Proliferation Rate (%) of callus round ([1]; cytokinin 5 mg/L, 60 days)	Diameter (cm) of callus round and sporophyte thereon ([1]; cytokinin 5 mg/L, 120 days)	Induction Rate (%) of sporophyte ([1]; cytokinin 5 mg/L, 120 days)	Proliferation Rate (%) of callus round ([1]; cytokinin 5 mg/L, 120 days)	Calluses (numbers), callus round in 0.1-0.2 cm [2, 4]	Proliferation Rate (%) [2, 4]	other results
CC(C)=CCNc1ncnc2nc[nH]c12 [2ip, N6-(delta 2-isopentenyl)-adenine]	0.57 ± 0.04 cm	100.0%	208.9 ± 24.1%	1.34 ± 0.22 cm	100.0%	537.5 ± 161.2%	0.60 ± 0.03 cm	100.0%	156.0 ± 22.2%	1.46 ± 0.21 cm	100.0%	386.3 ± 99.7%	0.38 ± 0.03 cm	0.0%	64.9 ± 18.3%	0.91 ± 0.24 cm	8.3%	208.3 ± 67.9%			induction rate of sporophytes [1, 3]: 100%; proliferation rate of the callus [1, 3]: 537±161.2%
c1ccc(CNc2ncnc3nc[nH]c23)cc1 [BA, 6-benzylaminopurine]	0.29 ± 0.05 cm	0.0%	40.5 ± 16.6%	0.97 ± 0.15 cm	0.0%	191.1 ± 71.5%	0.42 ± 0.06 cm	0.0%	89.9 ± 22.9%	0.77 ± 0.13 cm	0.0%	300.0 ± 38.6%	0.41 ± 0.06 cm	0.0%	41.1 ± 16.3%	0.88 ± 0.16 cm	0.0%	216.7 ± 38.7%			
c1coc(CNc2ncnc3nc[nH]c23)c1 [Kinetin, 6-Furfurylamino-purine]	0.31 ± 0.06 cm	0.0%	82.1 ± 24.3%	0.63 ± 0.09 cm	16.7%	231.0 ± 83.5%	0.23 ± 0.05 cm	0.0%	47.0 ± 12.2%	1.02 ± 0.06 cm	0.0%	182.1 ± 88.4%	0.32 ± 0.07 cm	0.0%	72.6 ± 17.5%	1.13 ± 0.10 cm	0.0%	217.9 ± 70.9%	73.67 ± 14.38 numbers	153.3 ± 24.9%	Calluses (numbers), callus round in 0.1-0.2 cm [2, 5]: 21.00 ± 3.74 numbers; Proliferation Rate (%) [2, 5]: 66.6 ± 17.0%; Calluses (numbers), callus round in 0.1-0.2 cm [2, 6]: 6.00 ± 5.35 numbers; Proliferation Rate (%) [2, 6]: 23.3 ± 4.7%
O=C(O)Cc1cccc2ccccc12 [NAA, 1-Naphthaleneacetic acid]																			54.33 ± 9.46 numbers	96.6 ± 17.0%	Calluses (numbers), callus round in 0.1-0.2 cm [2, 5]: 23.67 ± 1.25 numbers; Proliferation Rate (%) [2, 5]: 53.3 ± 20.6%; Calluses (numbers), callus round in 0.1-0.2 cm [2, 6]: 0.00 ± 0.00 numbers; Proliferation Rate (%) [2, 6]: 23.3 ± 4.7%
